Patent US9594042B2, “Electrochemical determination of factor XA inhibitors” (Roche Diagnostics Operations Inc., priority 2006, dated 2017)

Target: factor Xa (Homo sapiens, UniProt P00742)
Test: premature factor Xa-induced degradation of the thrombin substrate during common dwelling in liquid reagent
Format: biochemical
Settings: common dwelling time of 2 h with factor Xa
Text: The coagulation factor Xa is a serine protease which naturally recognizes the amino sequence -Ile-Glu-Gly-Arg- of prothrombin and by cleaving this sequence, activates the natural substrate prothrombin to form thrombin. In addition to this physiological substrate, factor Xa is also able to enzymatically cleave other peptides having this or other cleavage sequences. Thus, peptidic thrombin substrates and in particular the widely used Chromozym TH can also be cleaved by factor Xa. This low substrate specificity of factor Xa can result in problems in the methods according to the invention especially when such a thrombin substrate which can also be cleaved by factor Xa is used as a detection reagent and already comes into contact with factor Xa before adding the sample and can be converted thereby. As a result a portion of the thrombin substrate can already be converted such that this is no longer available for the thrombin-mediated detection reaction and thus the result of the measurement is affected. Such undesired side reactions can occur especially when factor Xa and the thrombin substrate are in contact over a long period such as would be for example the case if these two substances were to be introduced simultaneously into a liquid detection reagent. […]

Chain of factor Xa (P00742 235-488 limits assumed): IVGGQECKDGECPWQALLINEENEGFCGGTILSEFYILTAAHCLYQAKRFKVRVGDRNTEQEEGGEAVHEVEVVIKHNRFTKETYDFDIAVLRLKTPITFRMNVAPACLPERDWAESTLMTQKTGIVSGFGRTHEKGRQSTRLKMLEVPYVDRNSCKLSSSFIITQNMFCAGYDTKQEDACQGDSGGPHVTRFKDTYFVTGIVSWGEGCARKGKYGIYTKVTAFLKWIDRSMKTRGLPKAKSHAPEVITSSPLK
Chain of factor Xa (P00742 41-179 partner limits assumed): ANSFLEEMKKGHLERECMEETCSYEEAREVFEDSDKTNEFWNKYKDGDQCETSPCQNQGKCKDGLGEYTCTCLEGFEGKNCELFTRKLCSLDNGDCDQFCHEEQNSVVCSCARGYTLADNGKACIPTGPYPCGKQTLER

tosyl-glycy-prolyl-arginine-4-nitroanilide acetate [reduced Chromozym TH]
portion of the reduced Chromozym TH cleaved due alone to the action of factor Xa: about 25%
